The results in this text go back to ChEMBL document CHEMBL1143210, “2-Substituted 4-, 5-, and 6-[(1E)-3-oxo-3-phenylprop-1-en-1-yl]pyridazin-3(2H)-ones and 2-substituted 4,5-bis[(1E)-3-oxo-3-phenylprop-1-en-1-yl]pyridazin-3(2H)-ones as potent platelet aggregation inhibitors: design, synthesis, and SAR studies” (Bioorg Med Chem Lett, 2008).

The first experiment relates to Blood. The experiment can be described thus: Inhibition of thrombin-induced platelet aggregation in human blood at 100 uM by turbidimetric method. The format is functional.
As a reminder, the inhibition is the share of the control response that was lost under treatment. The molecule `O=C(/C=C/c1ccnn(Cc2ccccc2)c1=O)c1ccccc1` displayed an inhibition at 100 µM of 40%.

Another experiment relates to Blood. The experiment can be described thus: Inhibition of thrombin-induced platelet aggregation in human blood by turbidimetric method. In kind it is functional, tissue-based.
The term IC50 denotes the point on the concentration scale where inhibition reaches its midpoint. A high value points to weaker potency. Consider `O=C(/C=C/c1cnn(-c2ccccc2)c(=O)c1)c1ccccc1`, for which the IC50 came out at 3.3 µM. On the same count and under the same terms, next, `Cn1ncc(/C=C/C(=O)c2ccccc2)cc1=O`: 15.7 µM. Still for that read-out and setting: next, `CN1CC(/C=C/C(=O)c2ccccc2)=C(/C=C/C(=O)c2ccccc2)C=N1`: 6.15 µM.

Turning to `O=C(/C=C/C1=C(/C=C/C(=O)c2ccccc2)CN(c2ccccc2)N=C1)c1ccccc1`, the IC50 is 1.98 µM. With `O=C(/C=C/c1ccc(=O)n(Cc2ccccc2)n1)c1ccccc1`, the IC50 stood at 60 µM. Molecule `O=C(/C=C/c1ccc(=O)n(-c2ccccc2)n1)c1ccccc1` registered an IC50 of 12 µM. On the same count and under the same terms, next, `Cn1nc(/C=C/C(=O)c2ccccc2)ccc1=O`: 13.4 µM; `Cn1nccc(/C=C/C(=O)c2ccccc2)c1=O`: 37.1 µM; `O=C(/C=C/c1cnn(Cc2ccccc2)c(=O)c1)c1ccccc1`: 4.2 µM. Same read-out and setting: next, `O=C(/C=C/c1ccnn(-c2ccccc2)c1=O)c1ccccc1`: 17.6 µM; `O=C(/C=C/c1ccccc1)c1ccccc1` [CHALCONE]: 163 µM; `Cc1[nH]c(=O)c(C#N)cc1-c1ccncc1` [MILRINONE]: 4.7 µM. Same read-out and setting: next, `O=C1C(CC[S+]([O-])c2ccccc2)C(=O)N(c2ccccc2)N1c1ccccc1` (centres undefined) [SULFINPYRAZONE]: 509 µM.
